From patent publication US20260042753A1 (Merck Patent GmbH, priority 2019, published 2026) come the findings set out here.

Test [1] deals with c-Kit(V654A) (Homo sapiens, UniProt P10721, V654A). The experiment in a line: c-Kit(V654A) assay. The class given is biochemical. The note with it: Table 1; 200 μM ATP. Summed up: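 Radiometric filter-binding read-out: after 3% phosphoric acid stop, peptide-incorporated 33P on filtermat scintillation-counted. Enzyme: human c-Kit V654A, residues 544–end, N-terminal GST fusion.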

For test [2], the target named is mutant cKIT (560-576 and V654A) in GIST430/654 cell line (Homo sapiens (Human), UniProt P10721, DEL560-576/V654A). The experiment in a line: Cellular testing of cKIT mutant inhibitors: phospho-Y307-cKIT Luminex assay in GIST430/654 cells. The note with it: Table 1; cKIT autophosphorylation, compounds 45 min; read-out: GIST 430/654 IC50. The test is classed as cell-based. In outline:
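Autophosphorylation of mutant cKIT at Y307 was quantified by a Luminex bead sandwich assay (total-cKIT capture, phosphospecific detection) after 45 min compound exposure in GIST430/654 cells, cultured in medium containing 100 nM imatinib. Signals were normalised to solvent (0.3% DMSO) controls and dose-response curves fitted for IC50.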

mutant cKIT (560-576 and V654A) in GIST430/654 cell line, sequence (P10721 other isoform, or with tags, fused parts or gaps V654A/del 1-25/del 560-576 limits assumed): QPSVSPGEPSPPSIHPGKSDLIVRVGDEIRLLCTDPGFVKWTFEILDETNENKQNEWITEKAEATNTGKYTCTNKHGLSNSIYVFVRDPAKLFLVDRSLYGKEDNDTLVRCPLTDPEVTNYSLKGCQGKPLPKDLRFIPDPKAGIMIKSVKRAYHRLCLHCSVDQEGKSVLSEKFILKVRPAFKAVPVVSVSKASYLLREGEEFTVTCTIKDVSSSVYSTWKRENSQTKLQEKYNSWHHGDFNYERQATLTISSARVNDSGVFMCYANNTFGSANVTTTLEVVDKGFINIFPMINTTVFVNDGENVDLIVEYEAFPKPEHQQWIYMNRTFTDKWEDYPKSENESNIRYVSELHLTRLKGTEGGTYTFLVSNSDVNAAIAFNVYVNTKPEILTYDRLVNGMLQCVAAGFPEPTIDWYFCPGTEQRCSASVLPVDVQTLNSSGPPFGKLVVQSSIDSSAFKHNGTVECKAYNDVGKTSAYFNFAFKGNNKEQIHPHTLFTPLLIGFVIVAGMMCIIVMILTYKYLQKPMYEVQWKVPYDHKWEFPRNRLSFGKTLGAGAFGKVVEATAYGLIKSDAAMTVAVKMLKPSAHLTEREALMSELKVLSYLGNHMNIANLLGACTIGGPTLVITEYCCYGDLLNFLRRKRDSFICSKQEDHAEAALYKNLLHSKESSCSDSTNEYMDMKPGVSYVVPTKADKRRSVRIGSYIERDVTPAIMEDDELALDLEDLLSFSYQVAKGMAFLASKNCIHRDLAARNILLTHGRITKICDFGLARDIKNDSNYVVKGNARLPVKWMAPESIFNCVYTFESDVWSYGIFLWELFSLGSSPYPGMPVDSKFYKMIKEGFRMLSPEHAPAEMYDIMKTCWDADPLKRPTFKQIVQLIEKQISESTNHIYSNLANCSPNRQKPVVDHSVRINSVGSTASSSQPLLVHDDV

In the case of `COCCOc1cc2[nH]nc(-c3cc(-c4ccc(C(=O)N5CC(N6CCN(C7COC7)CC6)C5)cc4)no3)c2cc1F` [A197, 5-fluoro-6-(2-methoxyethoxy)-3-[3-(4-{3-[4-(oxetan-3-yl)piperazin-1-yl]azetidine-1-carbonyl}phenyl)-1,2-oxazol-5-yl]-1H-indazole], the IC50 is 1.9 nM in test [1] and 87 nM in test [2].

Regarding `COCCOc1cc2[nH]nc(-c3cc(-c4ccc(C(=O)N5CCCN(C6COC6)CC5)cc4)no3)c2cc1F` [A198, 5-fluoro-6-(2-methoxyethoxy)-3-(3-{4-[4-(oxetan-3-yl)-1,4-diazepane-1-carbonyl]phenyl}-1,2-oxazol-5-yl)-1H-indazole], the figures for the IC50 in test [1] and in test [2] were 0.92 nM and 73 nM, respectively.

For the compound `COCCOc1cc2[nH]nc(-c3cc(-c4ccc(C(=O)N5CC6(CCN(C7COC7)CC6)C5)cc4)no3)c2cc1F` [A199, 2-(4-{5-[5-fluoro-6-(2-methoxyethoxy)-1H-indazol-3-yl]-1,2-oxazol-3-yl}benzoyl)-7-(oxetan-3-yl)-2,7-diazaspiro[3.5]nonane], the IC50 stood at 0.76 nM in test [1] and 28 nM in test [2].

For `COCCOc1cc2[nH]nc(-c3cc(-c4ccc(C(=O)N5CC(N6CCOC[C@@H]6C)C5)cc4)no3)c2cc1F` [A200, 5-fluoro-6-(2-methoxyethoxy)-3-[3-(4-{3-[(3S)-3-methylmorpholin-4-yl]azetidine-1-carbonyl}phenyl)-1,2-oxazol-5-yl]-1H-indazole], the figures for the IC50 in test [1] and in test [2] were 1.3 nM and 19 nM, respectively.

In the case of `COCCOc1cc2[nH]nc(-c3cc(-c4ccc(C(=O)N5CC(N6CCOC[C@H]6C)C5)cc4)no3)c2cc1F` [A201, 5-fluoro-6-(2-methoxyethoxy)-3-[3-(4-{3-[(3R)-3-methylmorpholin-4-yl]azetidine-1-carbonyl}phenyl)-1,2-oxazol-5-yl]-1H-indazole], the IC50 in test [1] is 2 nM; in test [2] it was 31 nM.

`COCCOc1cc2[nH]nc(-c3cc(-c4ccc(C(=O)N5C[C@H]6COC[C@H]6C5)cc4)no3)c2cc1F` [A202, 3-(3-{4-[(cis)-hexahydro-1H-furo[3,4-c]pyrrole-5-carbonyl]phenyl}-1,2-oxazol-5-yl)-5-fluoro-6-(2-methoxyethoxy)-1H-indazole]: the IC50 in test [1] worked out at 1.1 nM; in test [2], 19 nM.

As for `COCCOc1cc2[nH]nc(-c3cc(-c4ccc(C(=O)N5CC(N6CCOCC6=O)C5)cc4)no3)c2cc1F` [A204, 4-[1-(4-{5-[5-fluoro-6-(2-methoxyethoxy)-1H-indazol-3-yl]-1,2-oxazol-3-yl}benzoyl)azetidin-3-yl]morpholin-3-one], the figures for the IC50 in test [1] and in test [2] were 0.88 nM and 61 nM, respectively.

Turning to `O=C(c1ccc(-c2cc(-c3n[nH]c4cc(OCCO)c(F)cc34)on2)cc1)N1CCN(C2COC2)CC1` [A205, 2-{[5-fluoro-3-(3-{4-[4-(oxetan-3-yl)piperazine-1-carbonyl]phenyl}-1,2-oxazol-5-yl)-1H-indazol-6-yl]oxy}ethan-1-ol], the figures for the IC50 in test [1] and in test [2] were 23 nM and 130 nM, respectively.

Take `COCCOc1cc2[nH]nc(-c3cc(-c4ccc(C(=O)N5CC(O)(c6ccncc6)C5)cc4)no3)c2cc1F` [A206, 1-(4-{5-[5-fluoro-6-(2-methoxyethoxy)-1H-indazol-3-yl]-1,2-oxazol-3-yl}benzoyl)-3-(pyridin-4-yl)azetidin-3-ol]: the IC50 in test [1] came to 0.67 nM; in test [2], 79 nM.

As to `COCCOc1cc2[nH]nc(-c3cc(-c4ccc(C(=O)N5Cc6cncnc6C5)cc4)no3)c2cc1F` [A207, 5-fluoro-6-(2-methoxyethoxy)-3-[3-(4-{5H,6H,7H-pyrrolo[3,4-d]pyrimidine-6-carbonyl}phenyl)-1,2-oxazol-5-yl]-1H-indazole], the IC50 in test [1] was determined as 1 nM; in test [2] it was 73 nM.

As to `COCCOc1cc2[nH]nc(-c3cc(-c4ccc(C(=O)N5Cc6cn[nH]c6C5)cc4)no3)c2cc1F` [A208, 5-fluoro-6-(2-methoxyethoxy)-3-[3-(4-{1H,4H,5H,6H-pyrrolo[3,4-c]pyrazole-5-carbonyl}phenyl)-1,2-oxazol-5-yl]-1H-indazole], the IC50 amounted to 0.74 nM in test [1] and 75 nM in test [2].

With `O=C(c1ccc(-c2cc(-c3n[nH]c4cc(OCCO)c(F)cc34)on2)cc1)N1CC(N2CCOCC2)C1` [A209, 2-{[5-fluoro-3-(3-{4-[3-(morpholin-4-yl)azetidine-1-carbonyl]phenyl}-1,2-oxazol-5-yl)-1H-indazol-6-yl]oxy}ethan-1-ol], the IC50 in test [1] turned out to be 0.86 nM; in test [2], 120 nM.

Regarding `COCCOc1cc2[nH]nc(-c3cc(-c4ccc(C(=O)N5CC(N6CCO[C@@H](C)C6)C5)cc4)no3)c2cc1F` [A210, 5-fluoro-6-(2-methoxyethoxy)-3-[3-(4-{3-[(2S)-2-methylmorpholin-4-yl]azetidine-1-carbonyl}phenyl)-1,2-oxazol-5-yl]-1H-indazole], the IC50 was 0.8 nM in test [1] and 30 nM in test [2].

With `COCCOc1cc2[nH]nc(-c3cc(-c4ccc(C(=O)N5CC(N6CCO[C@H](C)C6)C5)cc4)no3)c2cc1F` [A211, 5-fluoro-6-(2-methoxyethoxy)-3-[3-(4-{3-[(2R)-2-methylmorpholin-4-yl]azetidine-1-carbonyl}phenyl)-1,2-oxazol-5-yl]-1H-indazole], the IC50 was 1.3 nM in test [1] and 39 nM in test [2].

For the compound `COCCOc1cc2[nH]nc(-c3cc(-c4ccc(C(=O)N5CC(c6cncnc6)C5)cc4)no3)c2cc1F` [A212, 5-fluoro-6-(2-methoxyethoxy)-3-(3-{4-[3-(pyrimidin-5-yl)azetidine-1-carbonyl]phenyl}-1,2-oxazol-5-yl)-1H-indazole], the IC50 in test [1] came to 0.59 nM; in test [2] it was 41 nM.

Regarding `COCCOc1cc2[nH]nc(-c3cc(-c4ccc(C(=O)N5Cc6cnn(C)c6C5)cc4)no3)c2cc1F` [A213, 5-fluoro-6-(2-methoxyethoxy)-3-[3-(4-{1-methyl-1H,4H,5H,6H-pyrrolo[3,4-c]pyrazole-5-carbonyl}phenyl)-1,2-oxazol-5-yl]-1H-indazole], the IC50 in test [1] was 0.49 nM; in test [2], 48 nM.

Take `COCCOc1cc2[nH]nc(-c3cc(-c4ccc(C(=O)N5C[C@@H]6CN(C7COC7)C[C@@H]6C5)cc4)no3)c2cc1F` [A216, 3-(3-{4-[(cis)-5-(oxetan-3-yl)-octahydropyrrolo[3,4-c]pyrrole-2-carbonyl]phenyl}-1,2-oxazol-5-yl)-5-fluoro-6-(2-methoxyethoxy)-1H-indazole]: the IC50 in test [1] came to 1.1 nM; in test [2] it was 27 nM.

On to `COCCOc1cc2[nH]nc(-c3cc(-c4ccc(C(=O)N5C[C@@H]6CS(=O)(=O)C[C@@H]6C5)cc4)no3)c2cc1F` [A217, (cis)-5-(4-{5-[5-fluoro-6-(2-methoxyethoxy)-1H-indazol-3-yl]-1,2-oxazol-3-yl}benzoyl)-hexahydro-1H-2lambda6-thieno[3,4-c]pyrrole-2,2-dione], for which the IC50 is 0.32 nM in test [1] and 43 nM in test [2].

`COCCOc1cc2[nH]nc(-c3cc(-c4ccc(C(=O)N5CC(c6cnn(C)c6)C5)cc4)no3)c2cc1F` [A218, 5-fluoro-6-(2-methoxyethoxy)-3-(3-{4-[3-(1-methyl-1H-pyrazol-4-yl)azetidine-1-carbonyl]phenyl}-1,2-oxazol-5-yl)-1H-indazole]: the IC50 is 0.62 nM in test [1] and 47 nM in test [2].

Take `COc1cc2[nH]nc(-c3cc(-c4ccc(C(=O)N5CCN(C6COC6)CC5)cc4)no3)c2cc1F` [A219, {4-[5-(5-Fluoro-6-methoxy-1H-indazol-3-yl)-isoxazol-3-yl]-phenyl}-(4-oxetan-3-yl-piperazin-1-yl)-methanone]: the IC50 in test [1] was found to be 8 nM; in test [2], 280 nM.

Regarding `COc1cc2[nH]nc(-c3cc(-c4ccc(C(=O)N5C[C@H]6COC[C@H]6C5)cc4)no3)c2cc1F` [A220, {4-[5-(5-Fluoro-6-methoxy-1H-indazol-3-yl)-isoxazol-3-yl]-phenyl}-(cis)-tetrahydro-furo[3,4-c]pyrrol-5-yl-methanone], the IC50 in test [1] was found to be 2.2 nM; in test [2] it was 160 nM.

Turning to `COCCOc1cc2[nH]nc(-c3cc(-c4ccc(C(=O)N5CC(O)(c6cccnc6)C5)cc4)no3)c2cc1F` [A221, 1-(4-{5-[5-fluoro-6-(2-methoxyethoxy)-1H-indazol-3-yl]-1,2-oxazol-3-yl}benzoyl)-3-(pyridin-3-yl)azetidin-3-ol], the results for the IC50 in test [1] and in test [2] were 0.54 nM and 120 nM, respectively.

Turning to `CNCC1CCCN1C(=O)c1ccc(-c2cc(-c3n[nH]c4cc(OCCOC)c(F)cc34)on2)cc1` (stereo not shown) [A222, {[1-(4-{5-[5-fluoro-6-(2-methoxyethoxy)-1H-indazol-3-yl]-1,2-oxazol-3-yl}benzoyl)pyrrolidin-2-yl]methyl}(methyl)amine], the IC50 in test [1] stood at 0.52 nM; in test [2] it was 110 nM.

Regarding `COCCOc1cc2[nH]nc(-c3cc(-c4ccc(C(=O)N5C[C@H]6CNC[C@H]6C5)cc4)no3)c2cc1F` [A223, 3-(3-{4-[(cis)-octahydropyrrolo[3,4-c]pyrrole-2-carbonyl]phenyl}-1,2-oxazol-5-yl)-5-fluoro-6-(2-methoxyethoxy)-1H-indazole], the values for the IC50 in test [1] and in test [2] were 1.1 nM and 380 nM, respectively.

For the compound `O=C(c1ccc(-c2cc(-c3n[nH]c4cc(OCCO)c(F)cc34)on2)cc1)N1CCNCC1` [A224, 2-[(5-fluoro-3-{3-[4-(piperazine-1-carbonyl)phenyl]-1,2-oxazol-5-yl}-1H-indazol-6-yl)oxy]ethan-1-ol], the IC50 stood at 1.1 nM in test [1] and 250 nM in test [2].

As for `COc1cc2[nH]nc(-c3cc(-c4ccc(C(=O)N5CCNCC5)cc4)no3)c2cc1F` [A225, {4-[5-(5-fluoro-6-methoxy-1H-indazol-3-yl)-isoxazol-3-yl]-phenyl}-piperazin-1-yl-methanone], the IC50 in test [1] came out at 3.1 nM; in test [2], 340 nM.
